This note sets out measurements from ChEMBL document CHEMBL5291721, “A preclinical secondary pharmacology resource illuminates target-adverse drug reaction associations of marketed drugs” (Nat Commun, 2023).

For one assay, the target named is T1, Estrogen receptor (Homo sapiens, UniProt P03372).
T1 sequence (P03372 whole entry): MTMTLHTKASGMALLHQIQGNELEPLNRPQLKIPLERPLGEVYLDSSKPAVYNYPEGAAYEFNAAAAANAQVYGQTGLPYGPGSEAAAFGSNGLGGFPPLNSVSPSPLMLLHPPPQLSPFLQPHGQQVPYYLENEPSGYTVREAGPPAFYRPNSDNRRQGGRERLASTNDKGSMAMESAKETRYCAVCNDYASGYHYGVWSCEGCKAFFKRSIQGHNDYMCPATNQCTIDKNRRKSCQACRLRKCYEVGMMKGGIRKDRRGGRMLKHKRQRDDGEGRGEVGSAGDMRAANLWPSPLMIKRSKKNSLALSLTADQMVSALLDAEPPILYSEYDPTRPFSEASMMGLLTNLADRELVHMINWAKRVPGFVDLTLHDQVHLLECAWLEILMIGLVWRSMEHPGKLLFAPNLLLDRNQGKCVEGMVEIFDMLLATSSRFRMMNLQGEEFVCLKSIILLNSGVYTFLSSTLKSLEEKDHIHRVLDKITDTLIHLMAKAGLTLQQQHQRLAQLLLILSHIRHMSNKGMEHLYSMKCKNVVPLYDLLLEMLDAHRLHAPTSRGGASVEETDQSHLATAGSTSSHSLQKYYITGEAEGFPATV
The assay is classed as functional.

The target in assay [1] is Gamma-aminobutyric acid type B receptor subunit 1 (Homo sapiens, UniProt Q9UBS5).
The target of assay [2] is T2, Alpha-1A adrenergic receptor (Homo sapiens, UniProt P35348).
T2 sequence (P35348 whole entry): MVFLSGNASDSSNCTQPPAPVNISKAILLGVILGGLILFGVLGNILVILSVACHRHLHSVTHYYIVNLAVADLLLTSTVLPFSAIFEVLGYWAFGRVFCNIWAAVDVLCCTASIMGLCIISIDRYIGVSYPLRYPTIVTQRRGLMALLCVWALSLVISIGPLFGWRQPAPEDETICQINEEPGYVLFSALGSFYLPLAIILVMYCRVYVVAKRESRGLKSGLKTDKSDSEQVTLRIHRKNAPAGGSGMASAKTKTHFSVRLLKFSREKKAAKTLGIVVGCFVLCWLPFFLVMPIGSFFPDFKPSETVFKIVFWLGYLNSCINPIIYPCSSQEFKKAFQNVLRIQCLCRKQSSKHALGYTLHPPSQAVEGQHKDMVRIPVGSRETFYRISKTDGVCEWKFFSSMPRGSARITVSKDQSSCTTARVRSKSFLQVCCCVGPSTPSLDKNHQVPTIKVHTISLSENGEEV

Assay [3] concerns the target T3, Neuropeptide Y receptor type 2 (Homo sapiens, UniProt P49146).
T3 sequence (P49146 whole entry): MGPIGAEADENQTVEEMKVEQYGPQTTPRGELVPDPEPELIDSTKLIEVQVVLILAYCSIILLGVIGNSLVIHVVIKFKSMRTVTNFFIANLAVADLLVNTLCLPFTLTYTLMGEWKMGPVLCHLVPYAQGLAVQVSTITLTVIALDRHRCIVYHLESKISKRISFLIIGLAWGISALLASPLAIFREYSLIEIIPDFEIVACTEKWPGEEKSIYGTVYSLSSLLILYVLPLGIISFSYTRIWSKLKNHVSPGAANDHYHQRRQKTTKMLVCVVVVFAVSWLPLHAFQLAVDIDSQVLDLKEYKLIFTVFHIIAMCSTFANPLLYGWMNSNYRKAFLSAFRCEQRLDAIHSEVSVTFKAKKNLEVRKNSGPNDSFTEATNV

In assay [4] the target is T4, Muscarinic acetylcholine receptor M2 (Homo sapiens, UniProt P08172).
T4 sequence (P08172 whole entry): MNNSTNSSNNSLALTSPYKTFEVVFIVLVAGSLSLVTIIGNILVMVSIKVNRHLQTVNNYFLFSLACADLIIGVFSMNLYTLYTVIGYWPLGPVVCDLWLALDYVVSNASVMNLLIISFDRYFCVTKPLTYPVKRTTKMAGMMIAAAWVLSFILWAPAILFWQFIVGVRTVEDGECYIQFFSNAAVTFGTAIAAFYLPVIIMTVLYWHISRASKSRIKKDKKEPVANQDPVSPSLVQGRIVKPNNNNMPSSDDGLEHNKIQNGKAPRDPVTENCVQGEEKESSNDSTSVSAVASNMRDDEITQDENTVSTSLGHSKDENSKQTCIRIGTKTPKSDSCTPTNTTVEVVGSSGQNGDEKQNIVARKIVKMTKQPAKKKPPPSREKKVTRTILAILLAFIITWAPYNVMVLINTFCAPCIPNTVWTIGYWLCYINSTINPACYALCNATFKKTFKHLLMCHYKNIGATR

A further assay addresses T5, Androgen receptor (Rattus norvegicus, UniProt P15207).
T5 sequence (P15207 whole entry): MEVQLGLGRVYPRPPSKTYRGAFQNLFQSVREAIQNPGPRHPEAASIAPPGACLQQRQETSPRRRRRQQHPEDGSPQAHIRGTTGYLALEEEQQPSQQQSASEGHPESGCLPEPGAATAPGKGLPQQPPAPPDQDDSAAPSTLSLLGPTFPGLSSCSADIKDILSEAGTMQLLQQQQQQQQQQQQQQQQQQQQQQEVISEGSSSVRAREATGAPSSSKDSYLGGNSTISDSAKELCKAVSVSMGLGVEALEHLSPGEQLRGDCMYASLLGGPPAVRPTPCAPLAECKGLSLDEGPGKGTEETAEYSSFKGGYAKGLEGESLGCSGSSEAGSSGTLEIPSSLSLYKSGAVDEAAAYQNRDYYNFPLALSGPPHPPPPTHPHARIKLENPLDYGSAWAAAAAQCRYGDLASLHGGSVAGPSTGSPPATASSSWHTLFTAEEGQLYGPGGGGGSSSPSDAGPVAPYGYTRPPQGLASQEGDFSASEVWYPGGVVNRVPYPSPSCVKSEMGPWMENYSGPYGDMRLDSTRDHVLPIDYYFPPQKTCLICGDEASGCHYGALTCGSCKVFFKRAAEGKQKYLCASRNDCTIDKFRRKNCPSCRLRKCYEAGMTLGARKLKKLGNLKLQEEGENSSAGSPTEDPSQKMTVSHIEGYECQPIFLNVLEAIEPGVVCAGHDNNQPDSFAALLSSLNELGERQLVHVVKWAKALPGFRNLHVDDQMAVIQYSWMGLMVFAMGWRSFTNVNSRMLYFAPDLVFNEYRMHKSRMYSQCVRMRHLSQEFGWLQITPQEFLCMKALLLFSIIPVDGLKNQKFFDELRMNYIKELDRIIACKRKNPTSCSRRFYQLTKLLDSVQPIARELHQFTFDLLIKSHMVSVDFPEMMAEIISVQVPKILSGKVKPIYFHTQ

Assay [5] deals with Hydroxycarboxylic acid receptor 2 (Homo sapiens, UniProt Q8TDS4).
Also: assay procedure not described here.

Hydroxycarboxylic acid receptor 2, sequence (Q8TDS4 whole entry): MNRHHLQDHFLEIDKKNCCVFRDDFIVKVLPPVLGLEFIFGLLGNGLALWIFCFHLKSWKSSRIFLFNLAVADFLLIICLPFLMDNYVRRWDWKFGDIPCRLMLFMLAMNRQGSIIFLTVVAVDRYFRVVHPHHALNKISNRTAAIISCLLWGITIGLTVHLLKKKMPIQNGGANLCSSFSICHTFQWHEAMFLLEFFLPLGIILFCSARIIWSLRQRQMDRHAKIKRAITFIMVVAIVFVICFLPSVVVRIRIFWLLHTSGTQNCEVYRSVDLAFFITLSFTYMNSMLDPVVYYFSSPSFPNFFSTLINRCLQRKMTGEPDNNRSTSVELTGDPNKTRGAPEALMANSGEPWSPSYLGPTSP
Gamma-aminobutyric acid type B receptor subunit 1, sequence (Q9UBS5 whole entry): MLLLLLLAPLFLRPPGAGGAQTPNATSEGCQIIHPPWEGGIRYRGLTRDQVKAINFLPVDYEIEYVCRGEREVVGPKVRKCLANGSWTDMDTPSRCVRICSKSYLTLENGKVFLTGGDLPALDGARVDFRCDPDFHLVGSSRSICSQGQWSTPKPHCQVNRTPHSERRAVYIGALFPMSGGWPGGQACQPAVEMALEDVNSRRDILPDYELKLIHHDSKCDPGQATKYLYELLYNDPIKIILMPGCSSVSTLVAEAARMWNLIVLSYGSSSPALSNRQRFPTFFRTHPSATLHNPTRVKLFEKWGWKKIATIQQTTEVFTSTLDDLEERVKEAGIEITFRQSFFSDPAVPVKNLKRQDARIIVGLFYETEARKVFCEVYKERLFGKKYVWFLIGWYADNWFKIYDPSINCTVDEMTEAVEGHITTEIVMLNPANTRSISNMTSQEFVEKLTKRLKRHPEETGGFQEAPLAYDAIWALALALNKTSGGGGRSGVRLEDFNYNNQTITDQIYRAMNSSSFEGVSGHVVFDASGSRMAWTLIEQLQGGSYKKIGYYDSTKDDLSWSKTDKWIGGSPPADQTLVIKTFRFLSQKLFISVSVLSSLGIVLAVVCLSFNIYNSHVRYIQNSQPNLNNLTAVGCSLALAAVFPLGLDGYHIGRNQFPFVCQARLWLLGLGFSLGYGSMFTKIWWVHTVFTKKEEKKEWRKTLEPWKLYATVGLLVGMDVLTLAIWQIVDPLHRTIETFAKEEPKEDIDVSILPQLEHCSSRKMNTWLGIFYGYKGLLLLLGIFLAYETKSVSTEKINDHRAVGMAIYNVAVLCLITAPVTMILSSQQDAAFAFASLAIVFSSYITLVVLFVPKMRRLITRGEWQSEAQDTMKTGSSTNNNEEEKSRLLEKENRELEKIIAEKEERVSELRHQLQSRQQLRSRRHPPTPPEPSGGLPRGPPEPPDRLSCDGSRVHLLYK

One may read the AC50 as the concentration giving half of the maximal activity seen. Lower therefore signals activity at low concentration. For `CO/N=C(\C(=O)N[C@@H]1C(=O)N2C(C(=O)[O-])=C(C[N+]3(C)CCCC3)CS[C@H]12)c1csc(N)n1`, the AC50 on Estrogen receptor stood at 54 µM.
As for `CCOC(=O)[C@H](CCc1ccccc1)N[C@@H](C)C(=O)N1CCC[C@H]1C(=O)O`, the AC50 in assay [1] is > 10 µM; in assay [2] it was > 10 µM; in assay [3] it was > 30 µM; in assay [4] it was > 10 µM.
In the case of `Nc1nc(N)c2nc(-c3ccccc3)c(N)nc2n1`, the AC50 in assay [1] is > 10 µM; in assay [2] it was > 10 µM; in assay [3] it was > 30 µM; in assay [4], > 10 µM; on Androgen receptor, > 30 µM.
`C[C@H]1O[C@H](O[C@H]2[C@H](O)[C@@H](O)[C@@H](O[C@H]3[C@H](O)[C@@H](O)C(O)O[C@@H]3CO)O[C@@H]2CO)[C@H](O)[C@@H](O)[C@@H]1N[C@H]1C=C(CO)[C@@H](O)[C@H](O)[C@H]1O` (stereo partly specified) [ACARBOSE]: the AC50 in assay [1] was > 10 µM; in assay [2], > 10 µM; in assay [3] it was > 30 µM; in assay [4], > 10 µM.
On to `CC(=O)c1ccc2c(c1)N(CCCN1CCN(CCO)CC1)c1ccccc1S2` [ACETOPHENAZINE], for which the AC50 at Estrogen receptor is > 30 µM.
Regarding `Oc1ncnc2[nH]ncc12` [ALLOPURINOL], the AC50 in assay [2] is > 10 µM; in assay [5], > 10 µM; in assay [3], > 30 µM; in assay [4], > 10 µM.
As to `CN1CCCC(n2nc(Cc3ccc(Cl)cc3)c3ccccc3c2=O)CC1` (stereo unspecified) [AZELASTINE], the AC50 at Estrogen receptor is > 30 µM.
For the compound `CC(C)NCC(O)COc1ccc(COCCOC(C)C)cc1` (stereo unspecified) [BISOPROLOL], the AC50 in assay [2] is > 10 µM; in assay [3], > 30 µM; in assay [4], > 10 µM; on Androgen receptor, > 30 µM.
Take `COc1cc(Nc2c(C#N)cnc3cc(OCCCN4CCN(C)CC4)c(OC)cc23)c(Cl)cc1Cl` [BOSUTINIB]: the AC50 in assay [1] is > 10 µM; in assay [3], > 30 µM; in assay [4], 6.04 µM.
In the case of `CCC[C@@H]1C[C@@H](C(=O)N[C@@H]([C@H]2O[C@H](SC)[C@H](O)[C@@H](O)[C@H]2O)[C@H](C)Cl)N(C)C1` [CLINDAMYCIN], the AC50 in assay [2] is > 10 µM; in assay [5], > 10 µM; in assay [3] it was > 30 µM; in assay [4], > 10 µM.
As for `CN(CCOc1ccc(NS(C)(=O)=O)cc1)CCc1ccc(NS(C)(=O)=O)cc1` [DOFETILIDE], the AC50 is > 10 µM in assay [2], > 10 µM in assay [5], > 30 µM in assay [3] and > 10 µM in assay [4].
As to `COc1cc2c(cc1OC)C(=O)C(CC1CCN(Cc3ccccc3)CC1)C2` (stereo unspecified) [DONEPEZIL], the concentration at half-maximal activity (AC50) in assay [1] was > 10 µM; in assay [3], > 30 µM; at Androgen receptor, > 30 µM.
Regarding `C#C[C@]1(O)CC[C@H]2[C@@H]3CCc4cc(O)ccc4[C@H]3CC[C@@]21C` [ETHINYL ESTRADIOL], the half-maximal activity concentration (AC50) in assay [1] was > 10 µM; in assay [2], > 10 µM; in assay [5], > 10 µM; in assay [3] it was > 30 µM; in assay [4], > 10 µM.
For `NC(N)=Nc1nc(CSCCC(N)=NS(N)(=O)=O)cs1` [FAMOTIDINE], the AC50 in assay [2] is > 10 µM; in assay [3] it was > 30 µM; in assay [4] it was > 10 µM.
Take `C[C@@H]1O[C@@H]1P(=O)(O)O` [FOSFOMYCIN]: the AC50 on Androgen receptor is > 30 µM.
Take `NS(=O)(=O)c1cc2c(cc1Cl)NCNS2(=O)=O` [HYDROCHLOROTHIAZIDE]: the AC50 in assay [1] was > 10 µM; in assay [2], > 10 µM; in assay [3], > 30 µM; in assay [4], > 10 µM.
In the case of `CC(C)NNC(=O)c1ccncc1` [IPRONIAZID], the AC50 at Estrogen receptor is > 30 µM.
Consider `C[C@H]1C[C@@H]2[C@H]([C@@H](O)C[C@@]3(C)[C@H]2CC[C@]3(O)C(=O)CO)[C@@]2(C)C=CC(=O)C=C12` [METHYLPREDNISOLONE], for which, on Androgen receptor, the AC50 was > 30 µM.
For `CCN(CC)CCNC(=O)c1cc(Cl)c(N)cc1OC` [METOCLOPRAMIDE], the AC50 in assay [2] was > 10 µM; in assay [5] it was > 10 µM; in assay [3] it was > 30 µM.
Turning to `CCc1nn(CCCN2CCN(c3cccc(Cl)c3)CC2)c(=O)n1CCOc1ccccc1` [NEFAZODONE], the AC50 in assay [1] is > 10 µM; in assay [2] it was 0.13 µM; in assay [3] it was > 30 µM.
In the case of `OCCN1CCN(CCCN2c3ccccc3C=Cc3ccccc32)CC1` [OPIPRAMOL], the AC50 in assay [2] turned out to be 1.41 µM.
With `CCc1ccc(CCOc2ccc(CC3SC(=O)NC3=O)cc2)nc1` (stereo unspecified) [PIOGLITAZONE], the AC50 in assay [1] is > 10 µM; in assay [2], > 10 µM; in assay [3], > 30 µM.
As to `CC(C(=O)O)c1ccc(N2CC=CC2)c(Cl)c1` (stereo unspecified) [PIRPROFEN], the AC50 was > 10 µM in assay [2]; > 10 µM in assay [5]; > 30 µM in assay [3]; > 10 µM in assay [4]; > 30 µM at Androgen receptor.
Take `CC[C@H](C)C(=O)O[C@H]1C[C@H](O)C=C2C=C[C@H](C)[C@H](CC[C@@H](O)C[C@@H](O)CC(=O)O)[C@H]21` [PRAVASTATIN]: at Estrogen receptor, the AC50 was > 30 µM.
On to `NC(=O)c1cnccn1` [PYRAZINAMIDE], for which the half-maximal activity concentration (AC50) in assay [2] was > 10 µM; in assay [3] it was > 30 µM.
Consider `OCc1cc([C@@H](O)CNCCCCCCOCCOCc2c(Cl)cccc2Cl)ccc1O` [VILANTEROL], for which the AC50 on Estrogen receptor was > 30 µM.
On to `O=C(CCCCCCC(=O)Nc1ccccc1)NO` [VORINOSTAT], for which the AC50 in assay [1], in assay [2], in assay [3] and in assay [4] was > 10 µM each time.
